Reference: patent US20210077469A1, “PHARMACEUTICAL COMBINATIONS OF EGFR INHIBITORS AND METHODS OF USE THEREOF” (DANA-FARBER CANCER INSTITUTE, INC., priority 2018, published 2021)

Target: L858R/T790M EGFR (Homo sapiens, UniProt P00533, L858R/T790M)
Conditions: Ba/F3 cells harboring L858R/T790M EGFR treated with inhibitor; lysates immunoprecipitated by biotinylated Compound A; FIG. 2A
Procedure: 15-20 μg of proteins lysates were aliquoted and loaded at the same time as the pull down assay to ensure the presence of EGFR protein, phospho-EGFR activity. Tubulin expression was assessed to ensure even loading of gels. 500 μg of protein was incubated with either biotinylated-linker (control) or with biotinylated Compound A for two hours before 50% NeutrAvidin agarose beads (Thermo Fisher Scientific) slurry was added for an hour to precipitate the EGFR that was associated to the biotinylated allosteric inhibitor. The beads were then washed three times with PBS containing 1% IGEPAL and an insulin syringe was used to remove extraneous buffer before the samples were suspended in 2×SDS sample preparation buffer for Western blotting analyses. All experiments were performed at least three times.

Chain of L858R/T790M EGFR (P00533 25-1210 T790M/L858R): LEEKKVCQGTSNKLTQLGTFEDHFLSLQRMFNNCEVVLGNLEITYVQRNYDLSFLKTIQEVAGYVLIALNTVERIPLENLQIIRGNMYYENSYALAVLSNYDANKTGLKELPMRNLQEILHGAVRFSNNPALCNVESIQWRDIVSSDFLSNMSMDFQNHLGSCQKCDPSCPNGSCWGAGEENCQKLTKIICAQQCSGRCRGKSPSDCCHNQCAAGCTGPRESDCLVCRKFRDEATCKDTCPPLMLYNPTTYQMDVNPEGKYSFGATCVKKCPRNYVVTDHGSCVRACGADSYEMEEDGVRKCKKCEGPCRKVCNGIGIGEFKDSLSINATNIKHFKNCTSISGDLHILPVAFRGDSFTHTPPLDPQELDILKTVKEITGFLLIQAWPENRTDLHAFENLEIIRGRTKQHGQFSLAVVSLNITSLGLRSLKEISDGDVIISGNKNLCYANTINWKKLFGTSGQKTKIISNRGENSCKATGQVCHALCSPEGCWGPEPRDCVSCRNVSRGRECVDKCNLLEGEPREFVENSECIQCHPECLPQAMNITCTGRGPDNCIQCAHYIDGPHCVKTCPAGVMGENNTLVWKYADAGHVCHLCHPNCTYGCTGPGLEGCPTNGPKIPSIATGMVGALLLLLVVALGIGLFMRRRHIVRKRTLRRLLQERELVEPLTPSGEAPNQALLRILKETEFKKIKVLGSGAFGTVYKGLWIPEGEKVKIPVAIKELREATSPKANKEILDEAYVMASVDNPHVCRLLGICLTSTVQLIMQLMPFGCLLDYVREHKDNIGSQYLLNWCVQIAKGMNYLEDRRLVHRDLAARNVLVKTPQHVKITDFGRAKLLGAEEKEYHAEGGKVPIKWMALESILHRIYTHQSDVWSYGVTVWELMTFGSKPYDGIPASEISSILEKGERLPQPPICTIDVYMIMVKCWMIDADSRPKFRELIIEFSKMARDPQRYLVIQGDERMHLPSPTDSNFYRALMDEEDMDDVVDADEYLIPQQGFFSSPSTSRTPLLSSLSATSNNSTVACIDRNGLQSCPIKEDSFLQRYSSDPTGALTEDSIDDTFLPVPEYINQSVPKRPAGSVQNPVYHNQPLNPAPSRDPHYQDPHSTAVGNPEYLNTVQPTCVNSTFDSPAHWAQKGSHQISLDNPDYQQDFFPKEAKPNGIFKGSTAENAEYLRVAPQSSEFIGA

For `C=CC(=O)Nc1cccc(Oc2nc(Nc3ccc(N4CCN(C)CC4)cc3OC)ncc2Cl)c1` [WZ-4002], the “interference with binding of Compound A to EGFR” value was “interfere”.
